Drawing on PubChem BioAssay (NCI), this text covers TGI and GI50 for nine compounds.

Some test systems named below: IGROV1 ovarian; U251 CNS; NCI-H522 lung; DU-145 prostate; OVCAR-3 ovarian; OVCAR-8 ovarian; CCRF-CEM leukemia; EKVX NSCLC; A498 renal; SF-268 CNS.
Common to all, as to assay: DTP human tumour cell line panel, 48 h

Several values for one entry are separate records, joined by “and”; a condition that tells them apart may be missing. Equal entries are not always repeated.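 1) Cells in 96-well plates. 2) Compound, 48 h, 5 concentrations. 3) Linear interpolation between surrounding doses. 4) Unreached endpoint = highest concentration. Here, GI50 denotes the concentration required for 50% inhibition of growth. TGI: total growth inhibition.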

By TGI is commonly meant the concentration at which net growth stops. A high value points to lower sensitivity of the cells. Broadly, the GI50 is the concentration that inhibits growth by half.

As to `CC1=C(C)C(=O)O[C@@H]([C@](C)(O)[C@]2(O)CC[C@@]3(O)[C@@H]4C[C@H](O)[C@]5(O)[C@@H](O)C=CC(=O)[C@]5(C)[C@H]4CC[C@]23C)C1`, the TGI in the assay with IGROV1 ovarian is over 100 µM; with U251 CNS, over 100 µM; in the assay on NCI-H522 lung, over 100 µM; with DU-145 prostate, over 100 µM; in the assay on OVCAR-3 ovarian, over 100000 nM; in the assay with OVCAR-8 ovarian, over 100 µM. The TGI with CCRF-CEM leukemia is 89.5 µM; with EKVX NSCLC, over 100 µM; with A498 renal, over 100 µM; with SF-268 CNS it was over 100 µM.

Turning to `COc1ccc(NC2=C(I)C(=O)c3ncccc3C2=O)cc1`, the GI50 in the assay on IGROV1 ovarian was 417 nM; in the assay with U251 CNS, 673 nM; in the assay on NCI-H522 lung, 827 nM; in the assay with DU-145 prostate, 524 nM; in the assay on OVCAR-3 ovarian it was 270 nM; with OVCAR-8 ovarian, 1840 nM. For the same compound, the GI50 in the assay with CCRF-CEM leukemia was 2040 nM; in the assay on EKVX NSCLC, 1730 nM; with A498 renal it was 1740 nM; in the assay on SF-268 CNS, 1280 nM. Moreover, the TGI in the assay on IGROV1 ovarian was 1.93 µM; with U251 CNS it was 2.12 µM; with NCI-H522 lung, 2.53 µM; in the assay with DU-145 prostate, 1.87 µM; with OVCAR-3 ovarian, 1130 nM; in the assay with OVCAR-8 ovarian, 5.79 µM. Besides, the TGI with CCRF-CEM leukemia worked out at 6.55 µM; in the assay on EKVX NSCLC, 3.68 µM; in the assay with A498 renal, 3.28 µM; with SF-268 CNS, 4.23 µM.

`O=C(c1ccc(C(F)(F)F)c(Cl)c1)N(Cc1ccc(Cl)cc1)c1ccc(-c2cc(C(F)(F)F)[nH]n2)c(O)c1`: the GI50 in the assay with IGROV1 ovarian was 887 nM; in the assay on U251 CNS it was 882 nM; in the assay on NCI-H522 lung, 893 nM; with DU-145 prostate it was 1430 nM; in the assay on OVCAR-3 ovarian, 845 nM; in the assay with OVCAR-8 ovarian, 1200 nM. Also, the GI50 in the assay on CCRF-CEM leukemia was 1110 nM; in the assay on EKVX NSCLC it was 1300 nM; with A498 renal, 1040 nM; in the assay with SF-268 CNS it was 1320 nM. For the same compound, the TGI stood at 2.13 µM in the assay with IGROV1 ovarian; 2.25 µM in the assay with U251 CNS; 3.31 µM with NCI-H522 lung; 5.34 µM in the assay on DU-145 prostate; 2190 nM in the assay with OVCAR-3 ovarian; 3.91 µM in the assay on OVCAR-8 ovarian. Also, the TGI in the assay on CCRF-CEM leukemia is 5.33 µM; in the assay with EKVX NSCLC, 4.57 µM; in the assay on A498 renal it was 2.66 µM; in the assay on SF-268 CNS, 5.19 µM.

For `CCOC(=O)C1=C(C)NC(=O)NC1CN1C(=O)c2ccccc2C1=O` (stereo unspecified), the GI50 in the assay on IGROV1 ovarian, in the assay with U251 CNS, in the assay on NCI-H522 lung, in the assay on DU-145 prostate, with OVCAR-3 ovarian and with OVCAR-8 ovarian was over 100000 nM throughout. In addition, the GI50 in the assay on CCRF-CEM leukemia, with EKVX NSCLC, in the assay on A498 renal and in the assay with SF-268 CNS was over 100000 nM in each case. Also, the TGI is over 100 µM in the assay on IGROV1 ovarian; over 100 µM in the assay with U251 CNS; over 100 µM with NCI-H522 lung; over 100 µM with DU-145 prostate; over 100000 nM in the assay with OVCAR-3 ovarian; over 100 µM in the assay with OVCAR-8 ovarian. Besides, the TGI with CCRF-CEM leukemia, in the assay with EKVX NSCLC, in the assay on A498 renal and in the assay with SF-268 CNS was over 100 µM throughout.

On to `COc1ccc2c3c1OC1C(OC)(OC)C=C[C@@]4(Br)[C@@H](C2)N(CC2CC2)CC[C@]314` (stereo partly specified), for which the TGI is over 100 µM in the assay on IGROV1 ovarian; over 100 µM with U251 CNS; 47.8 µM in the assay on NCI-H522 lung; over 100 µM in the assay on DU-145 prostate; over 100000 nM with OVCAR-3 ovarian; over 100 µM with OVCAR-8 ovarian. Besides, the total growth inhibition concentration (TGI) in the assay with CCRF-CEM leukemia, with EKVX NSCLC, with A498 renal and with SF-268 CNS was over 100 µM throughout.

For the compound `CCCCNS(=O)(=O)c1n[nH]c(=O)[nH]c1=O`, the TGI in the assay on IGROV1 ovarian is over 100 µM; in the assay on U251 CNS it was over 100 µM; in the assay with NCI-H522 lung, over 100 µM; in the assay with DU-145 prostate, over 100 µM; in the assay on OVCAR-3 ovarian, over 100000 nM; in the assay on OVCAR-8 ovarian, over 100 µM. Besides, the TGI in the assay on CCRF-CEM leukemia was 35.7 µM; with EKVX NSCLC, over 100 µM; with A498 renal, over 100 µM; in the assay on SF-268 CNS, over 100 µM.

As to `COc1cc([N+](=O)[O-])c(OC)cc1-c1nc2sc(C)cn2c1/C(N)=N/C(=N)N`, the GI50 in the assay with IGROV1 ovarian was 32900 nM; in the assay on U251 CNS, 6490 nM; in the assay on NCI-H522 lung, 26500 nM; in the assay on DU-145 prostate, 16100 nM; in the assay on OVCAR-3 ovarian, 27600 nM; with OVCAR-8 ovarian it was 35700 nM. Also, the GI50 with CCRF-CEM leukemia is 18000 nM; with EKVX NSCLC, 15100 nM; with A498 renal, 27300 nM; with SF-268 CNS, 22000 nM. Further, the TGI in the assay with IGROV1 ovarian was over 100 µM; with U251 CNS it was over 100 µM; with NCI-H522 lung it was over 100 µM; in the assay on DU-145 prostate it was over 100 µM; in the assay on OVCAR-3 ovarian it was over 100000 nM; in the assay on OVCAR-8 ovarian, over 100 µM. In addition, the TGI in the assay with CCRF-CEM leukemia is over 100 µM; with EKVX NSCLC, 50.9 µM; in the assay on A498 renal, 69.1 µM; in the assay with SF-268 CNS, over 100 µM.

Regarding `CN(C)CCCSc1ccccc1NC1=C(Cl)C(=O)C(Nc2ccccc2SCCCN(C)C)=C(Cl)C1=O`, the GI50 is 1390 nM in the assay with IGROV1 ovarian; 2120 nM with U251 CNS; 1070 nM in the assay on NCI-H522 lung; 1760 nM in the assay with DU-145 prostate; 1530 nM with OVCAR-3 ovarian; 2030 nM with OVCAR-8 ovarian. Further, the GI50 with CCRF-CEM leukemia was 476 nM; in the assay with EKVX NSCLC, 1810 nM; in the assay with A498 renal, 8360 nM; with SF-268 CNS, 1930 nM. Moreover, the TGI in the assay on IGROV1 ovarian is 3.44 µM; in the assay with U251 CNS, 3.69 µM; in the assay with NCI-H522 lung, 2.89 µM; in the assay with DU-145 prostate, 3.23 µM; in the assay on OVCAR-3 ovarian, 2890 nM; in the assay with OVCAR-8 ovarian it was 3.99 µM. Besides, the TGI is 4.15 µM in the assay on CCRF-CEM leukemia, 3.38 µM in the assay with EKVX NSCLC, 20.6 µM in the assay on A498 renal and 4.48 µM with SF-268 CNS.

With `COCCOC1=CC(=O)c2c(O)ccc(O)c2C1=O`, the TGI in the assay with IGROV1 ovarian was 3.11 µM and 2.97 µM; in the assay with U251 CNS, 3.55 µM and 3.54 µM; in the assay on NCI-H522 lung, 4.44 µM and 3.37 µM; in the assay with DU-145 prostate, 2.12 µM and 1.62 µM; with OVCAR-3 ovarian it was 1860 nM and 1130 nM; in the assay on OVCAR-8 ovarian, 3.49 µM. Besides, the TGI in the assay with CCRF-CEM leukemia was 7.01 µM and 4.31 µM; in the assay on EKVX NSCLC it was 3.88 µM and 3.93 µM; with A498 renal it was 3.18 µM and 3.92 µM; in the assay on SF-268 CNS, 3.54 µM and 10.9 µM. Further, the GI50 in the assay with NCI-H522 lung was 1690 nM; in the assay on DU-145 prostate, 500 nM; with OVCAR-3 ovarian it was 319 nM; in the assay with CCRF-CEM leukemia, 1920 nM; in the assay with A498 renal it was 2160 nM; with SF-268 CNS it was 3290 nM.
